We go through five compounds from patent US11136347B2, “Crystalline forms of a fatty acid bile acid conjugate, preparation method thereof and use thereof” (Crystal Pharmaceutical (Suzhou) Co., Ltd., priority 2017, dated 2021).

Holding throughout (format): physicochemical
Series [1] can be described thus: Stability study: storage in open dishes, crystalline form checked by XRPD. The note with it: for Form change: XRPD. As for the experimental part: Solid samples of Form CS3 were stored under different conditions of 25° C./60% RH and 40° C./75% RH in open dishes for one year. Crystalline form was checked by XRPD.
Form CS8 were stored in open dishes under 25° C./60% RH, 40° C./75% RH and 60° C./75% RH conditions for three weeks, and sampled for XRPD test.

Series [2] is described as follows: Particle size distribution (Microtrac S3500 laser particle size analyzer, wet mode). Conditions: after ultrasonication for 30 seconds, dispersion medium Isopar G. As for the experimental part:
The particle size distribution data in the present disclosure were acquired by an S3500 laser particle size analyzer of Microtrac. Microtrac S3500 is equipped with an SDC (Sample Delivery Controller). The test was carried out in wet mode, and the dispersion medium is Isopar G. The parameters are as follows:
The particle size distribution of Form CS3 and the solid disclosed in CN100386339C were tested after ultrasonication for 30 seconds. The average particle size of Form CS3 is 26.3 μm, and D90 is 62.8 μm. The average particle size and D90 of the solid disclosed in prior art are 452.5 μm and 870.3 μm. Compared with prior art, Form CS3 has smaller particle size, which increases the specific surface area of the drug substance, improves the dissolution rate of drug, thereby facilitating drug absorption and further improving the bioavailability of the drug.
The particle size distribution of Form CS2 and the solid disclosed in CN100386339C were tested after ultrasonication for 30 seconds. An average particle size of Form CS2 is 41.9 μm, and D90 is 87.5 μm, while the average particle size and D90 of the solid disclosed in prior art are 452.5 μm and 870.3 μm. Compared with prior art, Form CS2 has smaller particle size, which increases the specific surface area of the drug substance, improves the dissolution rate of drug, thereby facilitating drug absorption and further improving the bioavailability of the drug.

Series [3] is described as follows: Hygroscopicity study by dynamic vapor sorption (DVS). The note with it: for The definition of hygroscopicity: Chinese Pharmacopoeia 2015 edition, 25° C. +/−1° C.; for The definition of hygroscopicity / Weight gain under 80% Relative Humidity: 80% RH; for Weight gain under 80% Relative Humidity: DVS. As for the experimental part: Dynamic vapor sorption (DVS) was applied to test hygroscopicity of Form CS3 and the solid disclosed in CN100386339C with about 15 mg of samples. […] DVS plot of test hygroscopicity of Form CS3 is depicted in FIG. 1G. What's more, the crystalline form of Form CS3 didn't change after DVS test, which is depicted in FIG. 1H.
Dynamic vapor sorption (DVS) was applied to test hygroscopicity of Form CS2 with about 10 mg of samples. […] As depicted in FIG. 1I, weight gain of the solid disclosed in prior art under 80% RH is 2.44%. The hygroscopicity of Form CS2 is lower than that of prior art.
Dynamic vapor sorption (DVS) was applied to test hygroscopicity of Form CS5 with about 8 mg of samples. […] As depicted in FIG. 1I, weight gain of the solid disclosed in prior art under 80% RH is 2.44%. The hygroscopicity of Form CS5 is lower than that of prior art.
Dynamic vapor sorption (DVS) was applied to test hygroscopicity of Form CS8 with about 7 mg of sample. […] As depicted in FIG. 1I, weight gain of the solid disclosed in prior art under 80% RH is 2.44%. The hygroscopicity of Form CS8 is lower than that of prior art. […] The XRPD patterns before and after DVS were shown in FIG. 4F, top: the XRPD pattern before DVS; bottom: XRPD pattern after DVS.

Setting [4] is: listed as solid disclosed in prior art.

Take `CCCCCCCCCCCCCCCCCCCC(=O)N[C@H]1CC[C@@]2(C)[C@@H](C1)C[C@@H](O)[C@@H]1[C@@H]2C[C@H](O)[C@]2(C)[C@@H]([C@H](C)CCC(=O)O)CC[C@@H]12` [Form CS2, 3β-arachidylamido-7α,12α-dihydroxy-5β-cholan-24-oic acid]: the “Time for which the crystalline form doesn't change (stable)” value in series [1] (25° C./60% RH) is listed as “at least 3 weeks”. In addition, in series [1] (40° C./75% RH), the “Time for which the crystalline form doesn't change (stable)” value is “at least 3 weeks”. For the same compound, the “Time for which the crystalline form doesn't change (stable)” value in series [1] (60° C./75% RH) is given as “at least 3 weeks”. Further, in series [2], the D10 is recorded as 9.7 μm, the D50 is recorded as 27.9 μm, the D90 amounted to 87.5 μm and the “MV (average particle diameter calculated by volume)” value is 41.9 μm. For the same compound, in series [3], the “The definition of hygroscopicity” value was “slightly hygroscopic (Increase in mass is less than 2 percent and equal to or greater than 0.2 percent)”; the “Weight gain under 80% Relative Humidity” value came out at 0.46%; the “Form change before and after DVS test (XRPD)” value was “No form change”.
Turning to `CCCCCCCCCCCCCCCCCCCC(=O)N[C@H]1CC[C@@]2(C)[C@@H](C1)C[C@@H](O)[C@@H]1[C@@H]2C[C@H](O)[C@]2(C)[C@@H]([C@H](C)CCC(=O)O)CC[C@@H]12` [Form CS3, 3β-arachidylamido-7α,12α-dihydroxy-5β-cholan-24-oic acid], in series [1] (25° C./60% RH), the “Time for which the crystalline form doesn't change (stable)” value is recorded as “at least 3 weeks”. In addition, the Form change result in series [1] (25° C./60% RH, one year) is “No form change”. Besides, the “Time for which the crystalline form doesn't change (stable)” value in series [1] (40° C./75% RH) is recorded as “at least 3 weeks”. In series [1] (40° C./75% RH, one year), the Form change entry is reported as “No form change”. Further, the “Time for which the crystalline form doesn't change (stable)” value in series [1] (60° C./75% RH) is on record as “at least 3 weeks”. Also, in series [2], the D10 came out at 2.0 μm, the D50 is given as 12.3 μm, the D90 is on record as 62.8 μm and the “MV (average particle diameter calculated by volume)” value is given as 26.3 μm. For the same compound, in series [3], the “Weight gain under 80% Relative Humidity” value was found to be 0.15%; the “Form change before and after DVS test (XRPD)” value is recorded as “didn't change”.
`CCCCCCCCCCCCCCCCCCCC(=O)N[C@H]1CC[C@@]2(C)[C@@H](C1)C[C@@H](O)[C@@H]1[C@@H]2C[C@H](O)[C@]2(C)[C@@H]([C@H](C)CCC(=O)O)CC[C@@H]12` [Form CS5, 3β-arachidylamido-7α,12α-dihydroxy-5β-cholan-24-oic acid]: the “Time for which the crystalline form doesn't change (stable)” value in series [1] (25° C./60% RH) was “at least 3 weeks”. Besides, in series [1] (40° C./75% RH), the “Time for which the crystalline form doesn't change (stable)” value is recorded as “at least 3 weeks”. Further, the “Time for which the crystalline form doesn't change (stable)” value in series [1] (60° C./75% RH) is recorded as “at least 3 weeks”. Also, the “MV (average particle diameter calculated by volume)” value in series [2] is listed as 75.6 μm. In series [3], the “The definition of hygroscopicity” value was “slightly hygroscopic (Increase in mass is less than 2 percent and equal to or greater than 0.2 percent)”; the “Weight gain under 80% Relative Humidity” value turned out to be 0.35%; the “Form change before and after DVS test (XRPD)” value is “No form change”.
Consider `CCCCCCCCCCCCCCCCCCCC(=O)N[C@H]1CC[C@@]2(C)[C@@H](C1)C[C@@H](O)[C@@H]1[C@@H]2C[C@H](O)[C@]2(C)[C@@H]([C@H](C)CCC(=O)O)CC[C@@H]12` [Form CS8, 3β-arachidylamido-7α,12α-dihydroxy-5β-cholan-24-oic acid], for which the Form change result in series [1] (25° C./60% RH, three weeks) was “no form change”; in series [1] (40° C./75% RH, three weeks), “no form change”; in series [1] (60° C./75% RH, three weeks), “no form change”. Also, the “Weight gain under 80% Relative Humidity” value in series [3] is reported as 0.40%. For the same compound, the “Form change before and after DVS test (XRPD)” value in series [3] is reported as “No form change”.
In series [2], `CCCCCCCCCCCCCCCCCCCC(=O)N[C@H]1CC[C@@]2(C)[C@@H](C1)C[C@@H](O)[C@@H]1[C@@H]2C[C@H](O)[C@]2(C)[C@@H]([C@H](C)CCC(=O)O)CC[C@@H]12` [Solid disclosed in CN100386339C, 3β-arachidylamido-7α,12α-dihydroxy-5β-cholan-24-oic acid, reference compound] yielded a D10 of 95.0 μm. In addition, the D50 in series [2] came out at 398.8 μm. Also, the D90 in series [2], in series [2] (listed as prior art) and in series [2] (setting [4]) was 870.3 μm each time. The “MV (average particle diameter calculated by volume)” value in series [2], in series [2] (listed as prior art) and in series [2] (setting [4]) was 452.5 μm each time. Further, in series [3] (setting [4]), the “The definition of hygroscopicity” value is “hygroscopic (Increase in mass is less than 15 percent and equal to or greater than 2 percent)”. Also, the “Weight gain under 80% Relative Humidity” value in series [3], in series [3] (listed as amorphous solid), in series [3] (setting [4]) and in series [3] (listed as solid of prior art) was 2.44% each time.
